Structures can show the parent of a compound that is named as a salt.
tested on: C. elegans; experiment: Lifespan in C. elegans; format: in vivo; conditions: not given

SMILES | lifespan in C. elegans
Cc1cc2c(cc1C)N(CCC1CCCCN1C)c1ccccc1S2 (centres unmarked) [TC84-125, 2,3-dimethyl-10-(2-(1-methylpiperidin-2-yl)ethyl)-10H-phenothiazine] | increased lifespan
CN1CCCCC1CCN1c2ccccc2Sc2cc(C(F)(F)F)ccc21 (centres unmarked) [TC84-144, 10-(2-(1-methylpiperidin-2-yl)ethyl)-3-(trifluoromethyl)-10H-phenothiazine] | increased lifespan
CC(=O)c1ccc2c(c1)N(CCCN(C)C(C)=O)c1ccccc1S2 [TC84-161, N-(3-(2-acetyl-10H-phenothiazin-10-yl)propyl)-N-methylacetamide] | increased lifespan
COc1ccc2c(c1)N(CCCN(C)C(C)=O)c1ccccc1S2 [TC84-163, N-(3-(2-methoxy-10H-phenothiazin-10-yl)propyl)-N-methylacetamide] | increased lifespan

same assay, conditions: Table 2; class letters I, D, N

SMILES | Lifespan
Cc1cc2c(cc1C)N(CCC1CCCCN1C)c1ccccc1S2 (centres unmarked) [TC84-125, 2,3-dimethyl-10-(2-(1-methylpiperidin-2-yl)ethyl)-10H-phenothiazine] | I
CN1CCCCC1CCN1c2ccccc2Sc2cc(C(F)(F)F)ccc21 (centres unmarked) [TC84-144, 10-(2-(1-methylpiperidin-2-yl)ethyl)-3-(trifluoromethyl)-10H-phenothiazine] | I
CC(=O)c1ccc2c(c1)N(CCCN(C)C(C)=O)c1ccccc1S2 [TC84-161, N-(3-(2-acetyl-10H-phenothiazin-10-yl)propyl)-N-methylacetamide] | I
COc1ccc2c(c1)N(CCCN(C)C(C)=O)c1ccccc1S2 [TC84-163, N-(3-(2-methoxy-10H-phenothiazin-10-yl)propyl)-N-methylacetamide] | I

tested on: Abeta transgenic C. elegans; experiment: Paralysis in Abeta transgenic C. elegans (Abeta toxicity); format: in vivo; conditions: not given

SMILES | Abeta toxicity
Cc1cc2c(cc1C)N(CCC1CCCCN1C)c1ccccc1S2 (centres unmarked) [TC84-125, 2,3-dimethyl-10-(2-(1-methylpiperidin-2-yl)ethyl)-10H-phenothiazine] | reduced Abeta toxicity
CC(=O)N(C)CCCN1c2ccccc2Sc2ccc(C(F)(F)F)cc21 [TC84-162, N-methyl-N-(3-(2-(trifluoromethyl)-10H-phenothiazin-10-yl)propyl)acetamide] | reduced Abeta toxicity
Cc1ccc2c(c1)N(CCC1CCCCN1C)c1cc(C(F)(F)F)ccc1S2 (centres unmarked) [TC96-20, 2-methyl-10-(2-(1-methylpiperidin-2-yl)ethyl)-8-(trifluoromethyl)-10H-phenothiazine] | reduced Abeta toxicity

tested on: microglial cells; experiment: MTT viability of microglial cells (microglial toxicity); format: cell-based; conditions: percentage of MTT viability compared to unstimulated DMSO control cells; Table 2

SMILES | MTT [%]
COc1ccc2c(c1)N(C(C)=O)c1ccccc1S2 [TC84-31, 1-(2-methoxy-10H-phenothiazin-10-yl)ethan-1-one] | 153.72
CC(=O)N1c2ccccc2Sc2ccc(C(F)(F)F)cc21 [TC84-32, 1-(2-(trifluoromethyl)-10H-phenothiazin-10-yl)ethan-1-one] | 141.59
COc1ccc2c(c1)N(C(C)=O)c1ccccc1[S+]2[O-] (centres unmarked) [TC84-37, 1-(2-methoxy-5-oxido-10H-phenothiazin-10-yl)ethan-1-one] | 140.38
Cc1cc2c(cc1C)N(CCC1CCCCN1C)c1ccccc1S2 (centres unmarked) [TC84-125, 2,3-dimethyl-10-(2-(1-methylpiperidin-2-yl)ethyl)-10H-phenothiazine] | 42.77
CN1CCCCC1CCN1c2ccccc2Sc2cc(C(F)(F)F)ccc21 (centres unmarked) [TC84-144, 10-(2-(1-methylpiperidin-2-yl)ethyl)-3-(trifluoromethyl)-10H-phenothiazine] | 41.27
CC(=O)c1ccc2c(c1)N(CCCN(C)C(C)=O)c1ccccc1S2 [TC84-161, N-(3-(2-acetyl-10H-phenothiazin-10-yl)propyl)-N-methylacetamide] | 106.15
CC(=O)N(C)CCCN1c2ccccc2Sc2ccc(C(F)(F)F)cc21 [TC84-162, N-methyl-N-(3-(2-(trifluoromethyl)-10H-phenothiazin-10-yl)propyl)acetamide] | 121.08
COc1ccc2c(c1)N(CCCN(C)C(C)=O)c1ccccc1S2 [TC84-163, N-(3-(2-methoxy-10H-phenothiazin-10-yl)propyl)-N-methylacetamide] | 108.79
Cc1ccc2c(c1)N(CCC1CCCCN1C)c1cc(C(F)(F)F)ccc1S2 (centres unmarked) [TC96-20, 2-methyl-10-(2-(1-methylpiperidin-2-yl)ethyl)-8-(trifluoromethyl)-10H-phenothiazine] | 51.90
COc1ccc2c(c1)N(CCC1CCCCN1C(C)=O)c1ccccc1S2 (centres unmarked) [TC96-32, 1-(2-(2-(2-methoxy-10H-phenothiazin-10-yl)ethyl)piperidin-1-yl)ethan-1-one] | 106.92

tested on: TNF-alpha; experiment: Microglial TNF-alpha secretion, LPS stimulated; format: cell-based; conditions: not given
Experimental: The efficacy of these compounds to reduce toxicity are assessed, as reflected by age-dependent paralysis, in an Abeta transgenic C. elegans model of Alzheimer's Disease. Because microglial inflammation, especially the cytokine TNF-alpha, are implicated in driving the pathophysiology of Alzheimer's Disease, […], was also assessed.

SMILES | microglial TNF-alpha secretion
Cc1cc2c(cc1C)N(CCC1CCCCN1C)c1ccccc1S2 (centres unmarked) [TC84-125, 2,3-dimethyl-10-(2-(1-methylpiperidin-2-yl)ethyl)-10H-phenothiazine] | significantly reduced
CC(=O)N(C)CCCN1c2ccccc2Sc2ccc(C(F)(F)F)cc21 [TC84-162, N-methyl-N-(3-(2-(trifluoromethyl)-10H-phenothiazin-10-yl)propyl)acetamide] | significantly reduced
Cc1ccc2c(c1)N(CCC1CCCCN1C)c1cc(C(F)(F)F)ccc1S2 (centres unmarked) [TC96-20, 2-methyl-10-(2-(1-methylpiperidin-2-yl)ethyl)-8-(trifluoromethyl)-10H-phenothiazine] | significantly reduced

same assay, conditions: percentage of TNFa vs LPS stimulated controls; Table 2

SMILES | TNFa [%]
COc1ccc2c(c1)N(C(C)=O)c1ccccc1S2 [TC84-31, 1-(2-methoxy-10H-phenothiazin-10-yl)ethan-1-one] | 92.28
CC(=O)N1c2ccccc2Sc2ccc(C(F)(F)F)cc21 [TC84-32, 1-(2-(trifluoromethyl)-10H-phenothiazin-10-yl)ethan-1-one] | 90.74
COc1ccc2c(c1)N(C(C)=O)c1ccccc1[S+]2[O-] (centres unmarked) [TC84-37, 1-(2-methoxy-5-oxido-10H-phenothiazin-10-yl)ethan-1-one] | 90.49
Cc1cc2c(cc1C)N(CCC1CCCCN1C)c1ccccc1S2 (centres unmarked) [TC84-125, 2,3-dimethyl-10-(2-(1-methylpiperidin-2-yl)ethyl)-10H-phenothiazine] | 41.37
CN1CCCCC1CCN1c2ccccc2Sc2cc(C(F)(F)F)ccc21 (centres unmarked) [TC84-144, 10-(2-(1-methylpiperidin-2-yl)ethyl)-3-(trifluoromethyl)-10H-phenothiazine] | 45.34
CC(=O)c1ccc2c(c1)N(CCCN(C)C(C)=O)c1ccccc1S2 [TC84-161, N-(3-(2-acetyl-10H-phenothiazin-10-yl)propyl)-N-methylacetamide] | 89.27
CC(=O)N(C)CCCN1c2ccccc2Sc2ccc(C(F)(F)F)cc21 [TC84-162, N-methyl-N-(3-(2-(trifluoromethyl)-10H-phenothiazin-10-yl)propyl)acetamide] | 94.58
COc1ccc2c(c1)N(CCCN(C)C(C)=O)c1ccccc1S2 [TC84-163, N-(3-(2-methoxy-10H-phenothiazin-10-yl)propyl)-N-methylacetamide] | 99.98
Cc1ccc2c(c1)N(CCC1CCCCN1C)c1cc(C(F)(F)F)ccc1S2 (centres unmarked) [TC96-20, 2-methyl-10-(2-(1-methylpiperidin-2-yl)ethyl)-8-(trifluoromethyl)-10H-phenothiazine] | 49.67
COc1ccc2c(c1)N(CCC1CCCCN1C(C)=O)c1ccccc1S2 (centres unmarked) [TC96-32, 1-(2-(2-(2-methoxy-10H-phenothiazin-10-yl)ethyl)piperidin-1-yl)ethan-1-one] | 78.98

tested on: not listed separately; experiment: Viability of Vero cells (CC50); format: cell-based; conditions: African green monkey; concentration that reduces viability of Vero cells

SMILES | CC50 [µM]
CN(C)CCCN1c2ccccc2Sc2ccc(C(F)(F)F)cc21 [Triflupromazine Hydrochloride] | 7

From US20240025868A1, “PHENOTHIAZINE COMPOUNDS FOR THE TREATMENT OF ALZHEIMER'S DISEASE AND OTHER AGE-RELATED AND NEUROLOGICAL DISEASES” (Icahn School of Medicine at Mount Sinai, priority 2020, published 2024)
